# From ChEMBL document CHEMBL2016560, “Mannitol Bis-phosphate Based Inhibitors of Fructose 1,6-Bisphosphate Aldolases” (ACS Med Chem Lett, 2011)
# Activity calls are given as the source filed them. No cut-off for these calls is given here.
# Columns and labels:
# [1] = biological target: T1, Fructose-bisphosphate aldolase, glycosomal (Trypanosoma brucei brucei, UniProt P07752); assay: Inhibition of His-tagged recombinant Trypanosoma brucei fructose bis-phosphate aldolase expressed in Escherichia coli using FBP as substrate after 5 to 15 mins
# T1 sequence (P07752 whole entry): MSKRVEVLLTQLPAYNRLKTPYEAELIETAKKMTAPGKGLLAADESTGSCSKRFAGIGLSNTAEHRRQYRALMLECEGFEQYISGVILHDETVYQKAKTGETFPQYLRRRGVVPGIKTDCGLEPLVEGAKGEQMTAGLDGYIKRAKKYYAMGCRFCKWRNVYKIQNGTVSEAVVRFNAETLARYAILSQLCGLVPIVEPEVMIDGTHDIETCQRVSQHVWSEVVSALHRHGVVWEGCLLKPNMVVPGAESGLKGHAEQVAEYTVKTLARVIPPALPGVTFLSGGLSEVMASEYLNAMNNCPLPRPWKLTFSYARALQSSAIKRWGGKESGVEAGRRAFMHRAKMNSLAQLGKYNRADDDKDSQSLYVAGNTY
# [2] = biological target: T2, Fructose-bisphosphate aldolase A (Oryctolagus cuniculus, UniProt P00883); assay: Inhibition of rabbit muscle FBA assessed as inhibition of FBP cleavage by spectrophotometry
# T2 sequence (P00883 whole entry): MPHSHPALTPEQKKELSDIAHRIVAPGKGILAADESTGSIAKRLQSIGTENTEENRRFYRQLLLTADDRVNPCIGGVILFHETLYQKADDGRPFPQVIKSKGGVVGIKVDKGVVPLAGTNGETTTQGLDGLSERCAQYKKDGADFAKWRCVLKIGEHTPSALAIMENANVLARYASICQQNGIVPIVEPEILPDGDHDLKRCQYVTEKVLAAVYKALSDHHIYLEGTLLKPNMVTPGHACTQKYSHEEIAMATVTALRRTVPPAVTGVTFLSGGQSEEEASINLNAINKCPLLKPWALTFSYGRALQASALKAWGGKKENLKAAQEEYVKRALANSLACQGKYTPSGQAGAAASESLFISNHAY
# [3] = biological target: T3, Fructose-bisphosphate aldolase, glycosomal (Trypanosoma brucei brucei) (UniProt P07752); assay: Competitive inhibition of His-tagged recombinant Trypanosoma brucei fructose bis-phosphate aldolase expressed in Escherichia coli by double-reciprocal plot analysis
# T3 sequence (whole entry): T1 sequence (P07752 whole entry)
Structure (SMILES),IC50 [1] [µM],IC50 [2] [µM],inhibition mode (competitive) [3]
CCCCCO[C@H](COP(=O)(O)O)[C@@H](O)[C@H](O)[C@H](O)COP(=O)(O)O,117,157,Active
O=P(O)(O)OC[C@@H](O)[C@@H](O)[C@H](O)[C@@](O)(CCCc1ccccc1)COP(=O)(O)O,56,137,Active
CC[C@@](O)(COP(=O)(O)O)[C@@H](O)[C@H](O)[C@H](O)COP(=O)(O)O,130,244,Active
O=P(O)(O)OC[C@@H](O)[C@@H](O)[C@H](O)[C@H](O)COP(=O)(O)O,9.4,8,–

# Continued by falling IC50 [1], values first:
IC50 [1] [µM],IC50 [2] [µM],inhibition mode (competitive) [3],Structure (SMILES)
51,64,Active,CCO[C@H](COP(=O)(O)O)[C@@H](O)[C@H](O)[C@H](O)COP(=O)(O)O
31,21,Active,O=P(O)(O)OC[C@@H](O)[C@@H](O)[C@H](O)[C@@H](COP(=O)(O)O)OCCCc1ccccc1
15,17,Active,CCCCC[C@@](O)(COP(=O)(O)O)[C@@H](O)[C@H](O)[C@H](O)COP(=O)(O)O
10,13,–,O=C(COP(=O)(O)O)[C@@H](O)[C@H](O)[C@H](O)COP(=O)(O)O (mixture of isomers)
2,7.5,Active,CO[C@H](COP(=O)(O)O)[C@@H](O)[C@H](O)[C@H](O)COP(=O)(O)O
